In patent publication US20150352094A1, “USE OF FATTY ACID NIACIN CONJUGATES FOR TREATING DISEASES” (CATABASIS PHARMACEUTICALS, INC., priority 2013, published 2015):

Tests used:
[1] = tested on: ApoB secretion in HepG2 cultures; settings: media supernatants of HepG2 cultures (Jin et al. 1999); cited from earlier work
[2] = tested on: ApoA1 secretion in HepG2 cultures; settings: media supernatants of HepG2 cultures (Jin et al. 1997); cited from earlier work
[3] = tested on: FASN (fatty acid synthase); experiment: SREBP-1c target gene expression in HepG2 cells (real time PCR): FASN; assay type: cell-based; settings: HepG2 cells stimulated with oleate, 50 μM, 6 hours
Procedure: (§1) HepG2 cells (ATCC) were seeded at 20,000 cells per well in 96 well plates. After adhering overnight, growth media (10% FBS in DMEM) was removed and cells were serum starved for 24 hours in DMEM containing 1% fatty acid free bovine serum albumin (BSA, Sigma). […] Cells were incubated for 6 hours and then washed with PBS. RNA was reverse-transcribed using the cells to cDNA reagents according to standard protocols (outlined in Applied Biosystem StepOne Real-time PCR protocols). Real time PCR of transcripts was performed with Taqman assays for the three specific genes FASN (fatty acid synthase), SCD (steroyl CoA desaturase) and ApoA1 (apolipoprotein A1). In all three cases, 18S-VIC® was used as a normalization control.

[4] = tested on: SCD (steroyl CoA desaturase); experiment: SREBP-1c target gene expression in HepG2 cells (real time PCR): SCD; assay type: cell-based; settings: HepG2 cells stimulated with oleate, 50 μM, 6 hours
Procedure: as §1

[5] = tested on: ApoA1 (apolipoprotein A1); experiment: SREBP-1c target gene expression in HepG2 cells (real time PCR): ApoA1; assay type: cell-based; settings: HepG2 cells stimulated with oleate, 50 μM, 6 hours
Procedure: as §1

[6] = tested on: ApoB secretion in HepG2 cells; settings: HepG2 cells, 50, 100 and 200 μM; compared to niacin at 5 mM
Procedure: HepG2 cells (ATCC) are seeded at 10,000 cells per well in 96 well plates. After adhering overnight, growth media (10% FBS in DMEM) is removed and cells are serum starved for 24 hours in DMEM containing 0.1% fatty acid free bovine serum albumin (BSA, Sigma). Cells are then treated with a compound. […] All treatments are performed in triplicate. Simultaneous with compound treatment, ApoB secretion is stimulated with addition of 0.1 oleate complexed to fatty acid free BSA in a 5:1 molar ratio. Incubation with a compound and oleate is conducted for 24 hours. Media supernatants are removed and ApoB concentrations are measured using ELISA kits (Mabtech AB). Percent inhibition of ApoB secretion is determined by normalizing data to vehicle treated wells. For a given compound, an IC50 (concentration at which 50% of ApoB secretion is inhibited) can also be determined by using a 4 parameter-fit inhibition curve model (Graph Pad Prism®). In each experiment, cell viability is determined using the ATPlite 1-Step kit (Perkin Elmer), such that compound effects due to cytotoxicity can be monitored.

[7] = tested on: female APOE*3Leiden mice; experiment: Plasma cholesterol and triglycerides in APOE*3Leiden mice on high cholesterol Western type diet; assay type: in vivo; settings: I-8 0.75% w/w in diet, atorvastatin 0.0015% w/w in diet
Procedure: The study was conducted using female APOE*3Leiden mice (groups of each n=10) and one untreated reference control group on chow (n=5). To induce dyslipidemia, a high cholesterol Western type diet containing 1% cholesterol, 15% cacao butter, 40.5% sucrose and 1% corn oil (WTD) was fed to the mice for a total experimental period of 20 weeks (of which 4 weeks are a run-in period).
The dyslipidemic mice were grouped on the basis of plasma cholesterol at t=0 assayed in 4 h fasting blood. Mice with low cholesterol after the run-in period were excluded so that homogenous experimental groups were obtained. A group of reference mice (n=5) remained on a chow diet during the complete study period (normolipidemic reference mice).
This mix was then added to the master mix (containing the rest of the ingredients) and mixed thoroughly. The diet was frozen to −20° C. On the subsequent day, the diet was broken into small pellets (approx 5 g per piece) and freeze dried, and stored in vacuum sealed bags (approx 500 g) at −20° C. until use. The diets were refreshed daily and unused diet was discarded.
EDTA plasma was collected in weeks −4, 0, 2 and 4 weeks.

[8] = tested on: Healthy human volunteers; experiment: Plasma triglycerides in healthy human volunteers after NIH high fat breakfast; assay type: in vivo
Procedure: Healthy human volunteers were divided into 4 treatment groups. The first treatment group was a placebo group (n=6). The other three groups consisted a single oral dose of compound I-8 at either 300 mg (n=6), 1000 mg (n=7) or 2000 mg (n=4). All subjects were given an NIH high fat breakfast in order to induce an elevated level of triglycerides (In a typical NIH high fat breakfast, 450 calories are derived from fat). Compound I-8 was then administered as a single oral dose at the three indicated doses at three different time points: immediately following the high fat meal, 2 hours following the high fat meal and 4 hours following the high fat meal. At each of the time points, plasma triglyceride levels were determined according to standard protocols. […] Based on these dramatic effects on plasma triglycerides levels, compound I-8 and other fatty acid niacin conjugates disclosed in this invention are useful for the treatment of type I hyperlipoproteinemia and type 5 hyperlipoproteinemia.

[9] = tested on: Male C57BL/6 mice; experiment: Liver weight gain induced by Lomitapide 10 mg/kg in mice on high fat cholesterol diet; assay type: in vivo
From the text: The objective of this example is to determine if 1-8, a representative compound of the present invention, can abrogate the development of hepatic steatosis induced by oral administration of the MTP inhibitor Lomitapide for 7 days in normal mice.
Male C57BL/6 mice were acclimated to the high fat cholesterol diet (D13093001; 1% cholesterol, 15% cacao butter, 40.5% sucrose and 1% corn oil (Research Diets, Inc. New Brunswick, N.J.) upon arrival at CRO facility. The test diet containing the compound (I-8) sufficient for approx. 3 kg of diet (i.e. 25 g of 1-8 from the invention), was prepared by adding the test compound to melted, hand warm cocoa butter and mixed for 5 min. This mix was then added to the master mix (containing the rest of the ingredients) and mixed thoroughly. The diet was frozen to −20° C. On the subsequent day, the diet was broken into small pellets (approx 5 g per piece) and freeze dried, and stored in vacuum sealed bags (approx 500 g) at −20° C. until used. This diet was designated D13093002. The diets were refreshed daily and unused diet is discarded. Lomitapide delivered via oral gavage formulation (10 mg/kg once daily) or vehicle was dosed as described in Table 1. The volume of each gavage dose delivered (mL/kg) was based on each individual animal's most recent recorded body weight. […]

[10] = tested on: mice; experiment: Liver weight gain induced by Lomitapide 1 and 3 mg/kg in mice on high fat cholesterol diet (second study); assay type: in vivo; settings: I-8 0.75% in diet from Day -7 with Lomitapide 1 or 3 mg/kg once daily, Days 1-7
Procedure: A second study was conducted with a longer predosing of 1-8 (7 days versus 3 days) and lower doses of Lomitapide (1 and 3 mg/kg once daily) as described in Table 2. Starting on Day −7 the animals in Groups 1, 2, and 4 received a high-fat cholesterol diet (D13093001, Research Diets, Inc. New Brunswick, N.J.). Similarly, starting on Day −7 the animals in Groups 3 and 5 received a high-fat cholesterol diet w/0.75% 1-8 (D13093002, Research Diets, Inc.). On day −1 all mice received an oral gavage dose of vehicle. The baseline blood sample were collected from each mouse 90 minutes after the vehicle dose and stored as plasma. The volume of each gavage dose delivered (mL/kg) was based on each individual animal's most recent recorded body weight.
Observations were recorded at least twice daily and at each sample collection time point. The presence or absence of any clinical abnormalities was recorded. Body weights were recorded on Day −7, and daily on Day −1 through Day 7 (AM). Interim blood samples were collected and a terminal blood sample was collected on Day 7 by intracardiac puncture following anesthetization with CO2. Each whole blood sample was transferred into tubes containing sodium heparin anticoagulant and placed on ice until processing. Each whole blood sample was centrifuged at 2200×g for 10 minutes at 5° C.+3° C. to isolate plasma. […]

In the case of O=C(O)c1cccnc1 [niacin], the “secretion of ApoB” value [1] is given as “inhibiting” and the “secretion of ApoA1” value [2] is given as “increase”.
In the case of CC/C=C\C/C=C\C/C=C\C/C=C\C/C=C\C/C=C\CCC(=O)NCCNC(=O)c1cccnc1 [Compound I-7, N-(2-(4Z,7Z,10Z,13Z,16Z,19Z)-docosa-4,7,10,13,16,19-hexaenamidoethyl)nicotinamide], the FASN gene expression [3] was “statistically significant inhibition”, the SCD gene expression [4] was “statistically significant inhibition” and the ApoA1 gene expression [5] was “increase”. The “inhibition of ApoB secretion” value [6] was “significant inhibition”.
For CC/C=C\C/C=C\C/C=C\C/C=C\C/C=C\CCCC(=O)NCCNC(=O)c1cccnc1 [Compound I-8, N-(2-(5Z,8Z,11Z,14Z,17Z)-eicosa-5,8,11,14,17-pentaenamidoethyl)nicotinamide], the FASN gene expression [3] was “statistically significant inhibition”, the SCD gene expression [4] was “statistically significant inhibition” and the ApoA1 gene expression [5] was “increase”. For the same molecule, the plasma cholesterol ([7]; after 4 weeks of treatment) was “Comparable level of cholesterol reduction”, the plasma triglycerides ([7]; after 4 weeks of treatment) was “significant reduction” and the plasma cholesterol ([7]; t=2 weeks of treatment) was “statistically significant reduction”. For the same molecule, the reduction in triglycerides ([8]; 2 hour time point following the high fat meal) was “robust signal was still observed”, the reduction in triglycerides ([8]; 4 hour time point following the high fat meal) was “robust signal was still observed” and the plasma triglycerides ([8]; single oral dose 1000 mg, after NIH high fat breakfast) was “significant reduction”. The plasma triglycerides ([8]; single oral dose 2000 mg, after NIH high fat breakfast) was “significant reduction”, the “effect on plasma triglycerides” value ([8]; single oral dose 300, 1000 or 2000 mg, after NIH high fat breakfast) was “dose-dependent effect” and the “Lomitapide-increased liver weight on cotreatment” value ([9]; I-8 0.75% in diet with Lomitapide 10 mg/kg once daily, 7 days) was “completely abrogated”. The “Lomitapide-increased liver weight on cotreatment” value [10] was “reduced”.
For O=C(NC1CCN(CCCCC2(C(=O)NCC(F)(F)F)c3ccccc3-c3ccccc32)CC1)c1ccccc1-c1ccc(C(F)(F)F)cc1 [Lomitapide, reference compound], the “increase in liver weight” value ([9]; Lomitapide alone 10 mg/kg once daily oral gavage, one week, high fat cholesterol diet) was 15%.
